In PubChem BioAssay (NCI):
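Following 48 hours of exposure in 96-well plates, responses at five concentrations were used to interpolate endpoints linearly. TGI marks complete inhibition of growth.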 Where a SMILES comes first, the peptide text is derived from it. Bridges are numbered along the chain shown (N, C = ends). [ ]: non-standard residue; d: D form. Aib = CC(C)(N)C(=O)O; βAla = NCCC(=O)O

Columns and labels:
Experiment in all cases: inhibition of tumour cell growth, NCI panel, 48 h
SNB-75 CNS = test system: SNB-75 CNS
SK-MEL-2 melanoma = test system: SK-MEL-2 melanoma
SN12C renal = test system: SN12C renal
NCI-H23 lung = test system: NCI-H23 lung
SK-OV-3 ovarian = test system: SK-OV-3 ovarian
IGROV1 ovarian = test system: IGROV1 ovarian
SW-620 colon = test system: SW-620 colon
786-0 renal = test system: 786-0 renal
MDA-MB-435 = test system: MDA-MB-435
HL-60(TB) leukemia = test system: HL-60(TB) leukemia
COLO 205 colon = test system: COLO 205 colon
DU-145 prostate = test system: DU-145 prostate
OVCAR-4 ovarian = test system: OVCAR-4 ovarian
NCI-H522 lung = test system: NCI-H522 lung
MALME-3M melanoma = test system: MALME-3M melanoma
MCF7 breast = test system: MCF7 breast
OVCAR-3 ovarian = test system: OVCAR-3 ovarian

Compound	TGI (SNB-75 CNS)	TGI (SK-MEL-2 melanoma)	TGI (SN12C renal)	TGI (NCI-H23 lung)	TGI (SK-OV-3 ovarian)	TGI (IGROV1 ovarian)	TGI (SW-620 colon)	TGI (786-0 renal)	TGI (MDA-MB-435)	TGI (HL-60(TB) leukemia)	TGI (COLO 205 colon)	TGI (DU-145 prostate)	TGI (OVCAR-4 ovarian)	TGI (NCI-H522 lung)	TGI (MALME-3M melanoma)	TGI (MCF7 breast)	TGI (OVCAR-3 ovarian)
O=C(Nc1ccc(C(F)(F)F)cc1)NC(F)(F)F	> 100 µM	> 100 µM	> 100 µM	> 100 µM	> 100 µM	> 100 µM	> 100 µM	> 100 µM	> 100 µM	> 100 µM	> 100 µM						
CN=C1Nc2ccccc2C(=O)N2CSCC12 (stereo not drawn)	> 100 µM	> 100 µM	> 100 µM		> 100 µM	> 100 µM	> 100 µM	> 100 µM	> 100 µM		> 100 µM	> 100 µM	> 100 µM	> 100 µM	> 100 µM	> 100 µM	> 100 µM
Cc1[nH]c(=O)nc2nc3cc(Cl)cc(Cl)c3c(NC(C)(CO)CO)c12	38.6 µM	> 100 µM	> 100 µM	> 100 µM	> 100 µM	> 100 µM	> 100 µM	91.6 µM	> 100 µM		> 100 µM	> 100 µM	> 100 µM	> 100 µM	> 100 µM	> 100 µM	> 100 µM
COc1cccc2c1c1ccc3c(c1n2C)C(=O)C=CC3=O		33 µM	41.5 µM	32.2 µM	> 100 µM	> 100 µM	24.7 µM	31.4 µM		> 100 µM	19.6 µM		31.8 µM	14.7 µM	27.1 µM		30.5 µM
COc1ccc(CNc2cnc3cc(N)ccc3n2)cc1	> 100 µM	> 100 µM	> 100 µM	> 100 µM		> 100 µM	> 100 µM	> 100 µM		> 100 µM	> 100 µM		> 100 µM	> 100 µM	> 100 µM		> 100 µM
Cc1cc(S(=O)(=O)Nc2n[nH]c(-c3ccc(Cl)cc3)n2)c(SSc2cc(Cl)c(C)cc2S(=O)(=O)Nc2n[nH]c(-c3ccc(Cl)cc3)n2)cc1Cl	76.1 µM		> 100 µM	> 100 µM	> 100 µM	69.2 µM	73.5 µM	> 100 µM	> 100 µM	48.5 µM	67.4 µM	> 100 µM	> 100 µM	83.9 µM	> 100 µM	> 100 µM	85.1 µM
COc1ccc2c3c1OC1C(F)C=CC4(O)C(C2)NCCC314 (stereo not drawn)	6.58 µM	6.65 µM	10.3 µM	6.64 µM	10.3 µM	20.3 µM	7.71 µM	3.27 µM	3.34 µM		3.12 µM	9.71 µM	7.05 µM	2.02 µM	5.56 µM	5.25 µM	7.07 µM
O=c1oc2ccc3ccccc3c2cc1-c1nnc(Nc2ccccc2)s1		34.7 µM	> 100 µM	98.3 µM				31.6 µM	> 100 µM			55.5 µM	38.8 µM	69.3 µM		> 100 µM	31.4 µM
CC1(C)NC(=O)C(NC(=O)C(N)CC(=O)O)CCCCNC(=O)CCNC1=O (stereo not drawn) (H-DK[Aib][βAla]; lactam 2-C; configuration not given here)	> 100 µM	> 100 µM		> 100 µM	> 100 µM	> 100 µM	> 100 µM	> 100 µM	> 100 µM		> 100 µM	> 100 µM	> 100 µM	> 100 µM	> 100 µM	> 100 µM	> 100 µM
C=C(C)C12CC3CC(/C(=N/O)C(C1)/C3=N\O)[C@@]2(C)O (stereo partly drawn)	> 100 µM	> 100 µM	> 100 µM	> 100 µM	> 100 µM	> 100 µM	> 100 µM	> 100 µM		> 100 µM	> 100 µM			> 100 µM	> 100 µM		> 100 µM
N#CC12C(=O)NC(=O)C1(C#N)C1C=CC2CC1 (stereo not drawn)	> 100 µM		> 100 µM	> 100 µM	> 100 µM		> 100 µM	> 100 µM	> 100 µM	> 100 µM	> 100 µM	> 100 µM	> 100 µM	> 100 µM	> 100 µM	> 100 µM	> 100 µM
Cc1c(C)c2ccc(OCC(O)COC(C)C)c(C)c2oc1=O (stereo not drawn)		36.8 µM		> 100 µM	> 100 µM	> 100 µM	93.1 µM	> 10 µM		60.3 µM	> 10 µM	> 100 µM	> 10 µM	45.8 µM	30.3 µM	50.1 µM	> 100 µM
CSC12c3cc(C)n(-c4ccc([N+](=O)[O-])cc4)c3CC(C)(C)CN1C(=O)C2Oc1ccccc1 (stereo not drawn)	> 100 µM	> 100 µM	> 100 µM	> 100 µM		> 100 µM	> 100 µM	> 100 µM	> 100 µM		> 100 µM	> 100 µM	> 100 µM			> 100 µM	> 100 µM
c1csc(-c2nn3c(C45CC6CC(CC(C6)C4)C5)nnc3s2)c1	> 100 µM	> 100 µM	> 100 µM	> 100 µM	> 100 µM	> 100 µM	> 100 µM	> 100 µM	> 100 µM	> 100 µM	> 100 µM	> 100 µM	> 100 µM	> 100 µM	> 100 µM		> 100 µM
CO/C=C/C=C(\C#N)C(=O)OC	> 100 µM	> 100 µM	> 100 µM	> 100 µM	> 100 µM	> 100 µM	> 100 µM	> 100 µM	> 100 µM		> 100 µM	> 100 µM	> 100 µM	> 100 µM	> 100 µM	> 100 µM	> 100 µM
CSc1ncnc2c1ncn2CCC(=O)O	> 100 µM		> 100 µM	> 100 µM	> 100 µM	> 100 µM	> 100 µM	> 100 µM	> 100 µM	> 100 µM	> 100 µM	> 100 µM	> 100 µM	> 100 µM	> 100 µM	> 100 µM	> 100 µM

Compound	TGI (SNB-75 CNS)	TGI (SK-MEL-2 melanoma)	TGI (SN12C renal)	TGI (NCI-H23 lung)	TGI (SK-OV-3 ovarian)	TGI (IGROV1 ovarian)	TGI (SW-620 colon)	TGI (786-0 renal)	TGI (MDA-MB-435)	TGI (HL-60(TB) leukemia)	TGI (COLO 205 colon)	TGI (DU-145 prostate)	TGI (OVCAR-4 ovarian)	TGI (NCI-H522 lung)	TGI (MALME-3M melanoma)	TGI (MCF7 breast)	TGI (OVCAR-3 ovarian)
CSC1=N/C(=C\c2ccc(Cl)cc2)C(=O)N1CN1CCCCC1	> 100 µM	> 100 µM	> 100 µM	> 100 µM	> 100 µM	93.2 µM	> 100 µM	> 100 µM	> 100 µM		> 100 µM	> 100 µM		> 100 µM	91.7 µM	82.8 µM	> 100 µM
COc1cc(C2C(Cl)C(=O)N2NC(=O)Cc2ccccc2)cc(Br)c1O (stereo not drawn)	> 100 µM	> 100 µM	> 100 µM	> 100 µM	> 100 µM	> 100 µM	> 100 µM	> 100 µM		> 100 µM	> 100 µM		> 100 µM	> 100 µM	> 100 µM		> 100 µM
OC12c3ccccc3C1CCCCC2N1CCCC1 (stereo not drawn)	> 100 µM	> 100 µM	> 100 µM	> 100 µM	> 100 µM		> 100 µM	> 100 µM		> 100 µM	> 100 µM		> 100 µM	> 100 µM	> 100 µM		
NC(=O)C1CCCN1C(=O)C(Cc1cnc[nH]1)NC(=O)C1CCCC1 (stereo not drawn)	> 100 µM		> 100 µM	> 100 µM	> 100 µM	> 100 µM	> 100 µM	> 100 µM	> 100 µM	> 100 µM	> 100 µM	> 100 µM	> 100 µM	> 100 µM	> 100 µM	> 100 µM	> 100 µM
CC(C)(O)C(O)COc1c2c(cc3oc(=O)ccc13)OCO2 (stereo not drawn)	> 100 µM	> 100 µM	> 100 µM	> 100 µM	> 100 µM	> 100 µM	> 100 µM	> 100 µM		> 100 µM	> 100 µM		> 100 µM	> 100 µM	> 100 µM		> 100 µM
CC1=C(C(=O)OC2CC3CCC2(C)C3(C)C)C2Nc3ccccc3N(C)C2O1 (stereo not drawn)	11.5 µM	7.9 µM	4.25 µM	6.59 µM	14.5 µM	6.97 µM	6.99 µM	9.09 µM	3.13 µM	4.97 µM	2.4 µM	2.79 µM		4.02 µM			11.9 µM
C=CC(=O)Nc1ccc(NC(=O)C=C)c2c1C(=O)c1ccccc1C2=O		> 100 µM	> 100 µM	> 100 µM		> 100 µM	> 100 µM	84.6 µM		24.7 µM	> 100 µM			34.6 µM	> 100 µM	57.4 µM	> 100 µM
CCOC1OC(COC(=O)C(C)(C)C)C(O)CC1n1cc(C)c(=O)[nH]c1=O (stereo not drawn)	> 100 µM	> 100 µM	> 100 µM	> 100 µM		> 100 µM	> 100 µM	> 100 µM	> 100 µM		> 100 µM	> 100 µM	> 100 µM	> 100 µM	> 100 µM	> 100 µM	> 100 µM
COc1cc(/C=C2\C(=O)N(C(=O)Cc3ccccc3)N=C2C)cc(OC)c1OC	> 100 µM	> 100 µM	> 100 µM	> 100 µM			> 100 µM	> 100 µM		> 100 µM	> 100 µM		> 100 µM	> 100 µM	> 100 µM		> 100 µM
CC(=O)OCCn1cnc2c(NCC=C(C)C)ncnc21	> 100 µM		> 100 µM	> 100 µM	> 100 µM	> 100 µM	> 100 µM	> 100 µM	> 100 µM	> 100 µM	> 100 µM	> 100 µM	> 100 µM	> 100 µM	> 100 µM	> 100 µM	> 100 µM
COc1ccccc1Nc1nc2c([nH]1)c(=O)n(C)c(=O)n2C	> 10 µM		> 10 µM	> 10 µM	> 10 µM	> 10 µM	> 10 µM	> 10 µM	> 10 µM	> 10 µM	> 10 µM	> 10 µM	> 10 µM		> 10 µM	> 10 µM	
CC(=O)O[C@@H]1C[C@]2(C(=O)c3ccccc3)C(=O)C(=O)S[C@]12c1ccccc1	> 100 µM	> 100 µM	> 100 µM	> 100 µM	> 100 µM	> 100 µM	> 100 µM	> 100 µM	> 100 µM		> 100 µM	> 100 µM	> 100 µM	> 100 µM	> 100 µM	> 100 µM	> 100 µM
COc1ccc(C(c2ccccc2)(c2ccc(OC)cc2)N2C(=O)NC3C(CCCCC(=O)NCCCCCCOP(OCCC#N)N(C(C)C)C(C)C)SCC32)cc1 (stereo not drawn)		24.9 µM		32.3 µM		40.3 µM	43.8 µM	35.9 µM		32.1 µM	40.7 µM		40 µM	27.3 µM	33.5 µM		28.1 µM
FC1(F)[Se]C2C3CCC(C3)C2C1(F)F (stereo not drawn)	> 100 µM	> 100 µM	> 100 µM		> 100 µM	> 100 µM	> 100 µM	> 100 µM	> 100 µM		> 100 µM	> 100 µM	> 100 µM	> 100 µM	> 100 µM	> 100 µM	> 100 µM
C=CCOC(=O)CC[C@H](NC(=O)[C@@H](CCC(F)(F)F)Cc1ccc(O)cc1)C(=O)OCC=C	77.2 µM		> 100 µM	> 100 µM	> 100 µM	> 100 µM	> 100 µM	> 100 µM	76 µM	> 100 µM	40.7 µM		> 100 µM	52.7 µM	39.1 µM	48.2 µM	
